Numbers after ± are expanded uncertainties.
Tests used:
[1] = refractive index (Na D-line) (dimensionless); conditions: 96.5 kPa, Liquid, Standard Abbe refractometry
[2] = 96.5 kPa, Liquid, Capillary tube (Ostwald / Ubbelohde) method

Compound: Cc1ccccc1O [2-methylphenol]
- refractive index ([1]; 288.15 K): 1.5407 ± 0.008
- refractive index ([1]; 293.15 K): 1.5392 ± 0.008
- refractive index ([1]; 298.15 K): 1.5382 ± 0.008
- refractive index ([1]; 303.15 K): 1.5362 ± 0.008
- refractive index ([1]; 308.15 K): 1.5336 ± 0.008
- viscosity ([2]; 288.15 K): 13.28 ± 0.31 mPa·s
- viscosity ([2]; 293.15 K): 9.68 ± 0.23 mPa·s
- viscosity ([2]; 298.15 K): 7.76 ± 0.17 mPa·s
- viscosity ([2]; 303.15 K): 6.575 ± 0.15 mPa·s
- viscosity ([2]; 308.15 K): 5.566 ± 0.12 mPa·s

From the NIST ThermoML archive (doi:10.1021/acs.jced.8b00135)
